Experimental data taken from PubChem BioAssay (NCI).
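Grown in 96-well plates, cells were treated for 48 hours with each compound at five concentrations. Insufficient inhibition: endpoint recorded as highest concentration tested. At the GI50, growth is halved. The concentration for full growth arrest is given as TGI.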

Legend:
Test in all cases: growth of human tumour cells (NCI), 48 h
[1] = tested on: 786-0 renal
[2] = tested on: A498 renal
[3] = tested on: A549 NSCLC
[4] = tested on: ACHN renal
[5] = tested on: BT-549 breast
[6] = tested on: CAKI-1 renal
[7] = tested on: CCRF-CEM leukemia
[8] = tested on: COLO 205 colon
[9] = tested on: DU-145 prostate
[10] = tested on: EKVX NSCLC
[11] = tested on: HCC-2998 colon
[12] = tested on: HCT-116 colon
[13] = tested on: HCT-15 colon
[14] = tested on: HL-60(TB) leukemia
[15] = tested on: HOP-62 NSCLC
[16] = tested on: HOP-92 NSCLC
[17] = tested on: HS 578T breast
[18] = tested on: HT29 colon
[19] = tested on: IGROV1 ovarian
[20] = tested on: K-562 leukemia
[21] = tested on: KM12 colon
[22] = tested on: LOX IMVI melanoma
[23] = tested on: M14 melanoma
[24] = tested on: MALME-3M melanoma
[25] = tested on: MCF7 breast
[26] = tested on: MDA-MB-231 breast
[27] = tested on: MOLT-4 leukemia
[28] = tested on: NCI-H226 lung
[29] = tested on: NCI-H23 lung
[30] = tested on: NCI-H460 lung
[31] = tested on: NCI-H522 lung
[32] = tested on: NCI/ADR-RES ovarian
[33] = tested on: OVCAR-3 ovarian
[34] = tested on: OVCAR-4 ovarian
[35] = tested on: OVCAR-5 ovarian
[36] = tested on: OVCAR-8 ovarian
[37] = tested on: PC-3 prostate
[38] = tested on: RPMI-8226 leukemia
[39] = tested on: RXF 393 renal
[40] = tested on: SF-268 CNS
[41] = tested on: SF-295 CNS
[42] = tested on: SF-539 CNS
[43] = tested on: SK-MEL-2 melanoma
[44] = tested on: SK-MEL-28 melanoma
[45] = tested on: SK-MEL-5 melanoma
[46] = tested on: SK-OV-3 ovarian
[47] = tested on: SN12C renal
[48] = tested on: SNB-19 CNS
[49] = tested on: SNB-75 CNS
[50] = tested on: SR leukemia
[51] = tested on: SW-620 colon
[52] = tested on: T-47D breast
[53] = tested on: TK-10 renal
[54] = tested on: U251 CNS
[55] = tested on: UACC-62 melanoma
[56] = tested on: UO-31 renal
[57] = tested on: MDA-MB-435
[58] = tested on: UACC-257 melanoma

## CCOC(=O)/C=C/C1=C(c2ccsc2)c2ccc(OC)cc2CC1
[1]
  GI50: 0.511 µM
  TGI: 30.3 µM
[2]
  GI50: 0.512 µM
  TGI: > 31.3 µM
[3]
  GI50: 0.671 µM
  TGI: > 100 µM
[4]
  GI50: 0.701 µM
  TGI: > 52.7 µM
[5]
  GI50: 0.787 µM
  TGI: > 46.9 µM
[6]
  GI50: 0.387 µM
  TGI: > 100 µM
[7]
  GI50: 0.328 µM
[8]
  GI50: 0.213 µM
  TGI: 1.36 µM
[9]
  GI50: 0.473 µM
  TGI: > 36.5 µM
[10]
  GI50: 6 µM
  TGI: > 100 µM
[11]
  GI50: 4.57 µM
  TGI: 26.7 µM
[12]
  GI50: 0.376 µM
  TGI: > 39.4 µM
[13]
  GI50: 0.222 µM
  TGI: > 20.2 µM
[14]
  GI50: 0.206 µM
  TGI: 0.794 µM
[15]
  GI50: 0.599 µM
  TGI: > 100 µM
[16]
  GI50: 2.29 µM
  TGI: > 55.4 µM
[17]
  GI50: 0.43 µM
  TGI: > 38.7 µM
[18]
  GI50: 0.275 µM
  TGI: > 41.4 µM
[19]
  GI50: 6.26 µM
  TGI: > 100 µM
[20]
  GI50: 0.0592 µM
  TGI: 12.5 µM
[21]
  GI50: 0.169 µM
  TGI: 15.4 µM
[22]
  GI50: 0.61 µM
  TGI: > 50.1 µM
[23]
  GI50: 0.378 µM
  TGI: > 100 µM
[24]
  GI50: 0.205 µM
  TGI: > 100 µM
[25]
  GI50: 0.364 µM
  TGI: 26.4 µM
[26]
  GI50: 0.924 µM
  TGI: 19.7 µM
[27]
  GI50: 0.512 µM
  TGI: 12.9 µM
[28]
  GI50: 0.769 µM
  TGI: > 62.8 µM
[29]
  GI50: 0.525 µM
  TGI: > 100 µM
[30]
  GI50: 2.21 µM
  TGI: 15.8 µM
[31]
  GI50: 0.26 µM
  TGI: > 100 µM
[32]
  GI50: 0.285 µM
[33]
  GI50: 0.205 µM
  TGI: 0.686 µM
[34]
  GI50: 2.33 µM
  TGI: > 100 µM
[35]
  GI50: 1.66 µM
  TGI: > 100 µM
[36]
  GI50: 0.661 µM
  TGI: > 41.9 µM
[37]
  GI50: 0.202 µM
[38]
  GI50: 0.292 µM
  TGI: 4.15 µM
[39]
  GI50: 0.235 µM
  TGI: 5.02 µM
[40]
  GI50: 0.656 µM
  TGI: 58.1 µM
[41]
  GI50: 0.349 µM
  TGI: 20.6 µM
[42]
  GI50: 0.388 µM
  TGI: 6.13 µM
[43]
  GI50: 3.66 µM
  TGI: > 24.7 µM
[44]
  GI50: 0.982 µM
  TGI: > 49.8 µM
[45]
  GI50: 0.195 µM
  TGI: 11.2 µM
[46]
  GI50: 0.359 µM
  TGI: > 85.6 µM
[47]
  GI50: 0.837 µM
  TGI: > 23.9 µM
[48]
  GI50: 0.357 µM
  TGI: > 100 µM
[49]
  GI50: 0.263 µM
  TGI: > 100 µM
[50]
  GI50: 0.156 µM
  TGI: 6.37 µM
[51]
  GI50: 0.349 µM
  TGI: > 100 µM
[52]
  GI50: 0.33 µM
  TGI: > 100 µM
[53]
  GI50: 0.716 µM
  TGI: > 100 µM
[54]
  GI50: 0.405 µM
  TGI: > 100 µM
[55]
  GI50: 1.79 µM
  TGI: 26.2 µM
[56]
  GI50: 7.6 µM
  TGI: > 100 µM

## Nc1ccccc1C#C/C=C\C#Cc1cnccn1
[3]
  GI50: 30.2 µM
  TGI: > 100 µM
[4]
  GI50: 22.2 µM
  TGI: 79.7 µM
[5]
  GI50: 20.3 µM
  TGI: 70.2 µM
[6]
  GI50: 46.3 µM
  TGI: > 100 µM
[7]
  TGI: 14.8 µM
[8]
  GI50: 14.5 µM
  TGI: 28.5 µM
[9]
  GI50: 19.4 µM
  TGI: > 100 µM
[10]
  GI50: 16.3 µM
  TGI: > 100 µM
[11]
  GI50: 11 µM
  TGI: 23 µM
[12]
  GI50: 11.2 µM
  TGI: 23.2 µM
[13]
  GI50: 26.1 µM
  TGI: > 100 µM
[15]
  GI50: 13.6 µM
  TGI: 32.3 µM
[16]
  GI50: 1.36 µM
  TGI: 18.3 µM
[17]
  GI50: 27 µM
  TGI: > 100 µM
[18]
  GI50: 23.4 µM
  TGI: 74.3 µM
[20]
  GI50: 6.66 µM
  TGI: > 100 µM
[21]
  GI50: 23.3 µM
  TGI: > 100 µM
[22]
  GI50: 2.93 µM
  TGI: 17.5 µM
[23]
  GI50: 6.21 µM
  TGI: 20.4 µM
[24]
  GI50: 19.9 µM
  TGI: 58.6 µM
[25]
  GI50: 21.3 µM
  TGI: > 100 µM
[57]
  GI50: 48.4 µM
  TGI: > 100 µM
[27]
  GI50: 12.4 µM
  TGI: 68.5 µM
[29]
  GI50: 12.1 µM
  TGI: 27 µM
[30]
  GI50: 29.8 µM
  TGI: > 100 µM
[32]
  GI50: 13.7 µM
  TGI: 31.9 µM
[33]
  GI50: 86.5 µM
  TGI: > 100 µM
[34]
  GI50: 23.1 µM
  TGI: > 100 µM
[35]
  GI50: 18.8 µM
  TGI: 45.7 µM
[36]
  GI50: 41.8 µM
  TGI: > 100 µM
[37]
  GI50: 4.11 µM
  TGI: 23.8 µM
[38]
  GI50: 3.17 µM
  TGI: 19.2 µM
[40]
  GI50: 27.5 µM
  TGI: > 100 µM
[41]
  GI50: 74.6 µM
  TGI: > 100 µM
[42]
  GI50: 22.8 µM
  TGI: 87.6 µM
[44]
  GI50: 27.8 µM
  TGI: > 100 µM
[45]
  GI50: 6.34 µM
  TGI: 21.3 µM
[46]
  GI50: 31.1 µM
  TGI: 95.5 µM
[47]
  GI50: 4.33 µM
  TGI: 20.7 µM
[48]
  GI50: 36.7 µM
  TGI: > 100 µM
[49]
  GI50: 21.1 µM
  TGI: 90.7 µM
[51]
  GI50: 15.2 µM
  TGI: 46.1 µM
[52]
  GI50: 17.7 µM
  TGI: 40.3 µM
[53]
  GI50: 32.4 µM
  TGI: 60 µM
[54]
  GI50: 18.2 µM
  TGI: 41.8 µM
[58]
  GI50: 26 µM
  TGI: > 100 µM
[55]
  GI50: 3.95 µM
  TGI: 21 µM
